Results taken from patent publication US20150276767A1, “SYSTEMS AND METHODS FOR IDENTIFYING CANCERS HAVING ACTIVATED PROGESTERONE RECEPTORS” (THE UNIVERSITY OF SYDNEY, priority 2014, published 2015).

Key:
[1] = system: progesterone receptor (PR) binding to genomic regions in T-47D breast cancer cells; assay: ChIP-PCR of PR binding regions in T-47D cells; assay type: cell-based, human
Method: Cells were cultured to 80% confluency in 15 cm tissue culture dishes, then treated for 45 minutes with 10 nM ORG2058 or vehicle. Chromatin was subsequently cross-linked by the addition of formaldehyde to the culture medium to a final concentration of 1% and incubation for 10 minutes at 37° C. Media were immediately removed and the cells were washed with cold phosphate buffered saline and harvested by scraping. Cells were collected by centrifugation and pellets were lysed 10 minutes at 4° C. in SDS buffer (1% SDS; 10 mM EDTA; 50 mM Tris-HCl, pH 8). The lysates were sonicated at 4° C. with a Branson 450 sonicator, using seven one minute bursts at 40% amplitude and 60% duty, each separated by a rest of at least one minute. Lysates were centrifuged at 13,000×g at 4° C. for 15 minutes to remove debris. […] Supernatants were diluted 1:10 with IP buffer (0.5% NP-40; 50 mM Tris, pH 8; 120 mM NaCl; 0.5 mM PMSF; Complete protease inhibitor cocktail, Roche, Ryde, Australia) and pre-cleared by incubation with Dynabeads M-280 sheep anti-mouse IgG magnetic beads (Invitrogen, Mulgrave, Australia), with gentle rotation at 4° C. for at least 2 h to reduce non-specific binding to the secondary antibody beads. Genomic DNA fragments that were bound to PR were isolated by rotation overnight at 4° C. with in-house hPRa6 and hPRa7 mouse monoclonal anti-PR antibodies and fresh sheep anti-mouse IgG magnetic beads (40 ul per 1.4 ml diluted lysate). Beads were washed sequentially with IP buffer, high salt wash buffer (0.5% NP-40, 50 mM Tris, pH 8, 500 mM NaCl, 0.5 mM PMSF), lithium wash buffer (250 mM LiCl, 0.5% NP-40, 1% sodium deoxycholate, 1 mM EDTA, pH 8, 10 mM Tris-HCl, pH 8) and TE (10 mM Tris, pH 8, 1 mM EDTA). Isolated DNA fragments were eluted twice for 15 minutes at room temperature using elution buffer (1% SDS, 0.1M NaHCO3). Cross-links were reversed by addition of 0.25M NaCl and heating to 65° C. for at least 6 h. DNA fragments were purified using Qiagen PCR purification columns (Qiagen, Doncaster, Australia). DNA fragments isolated by PR chromatin immunoprecipitation from ORG2058 treated cells were sequenced on an Illumina GA-IIx sequencer at the Ramaciotti Centre for Gene Function Analysis (University of New South Wales, Australia) and GeneWorks (Hindmarsh, Australia). Input DNA isolated from the pre-cleared ORG2058 treated samples were sequenced as a baseline control. An aliquot of DNA was isolated from the ORG2058-treated, pre-cleared sample, to serve as an input DNA control sample in next-generation sequencing.
(§1) Directed ChIP was performed using the same protocol as described for ChIP-seq. Target templates were quantitated using Platinum Sybr Green reagents (Invitrogen) in a RotorGene 6000 real-time PCR machine. Directed ChIP was carried out as described above and purified gDNA fragments were diluted 2 to 5-fold prior to quantitation by real-time qPCR.
We conducted ChIP-PCR in T-47D cells and a second breast cancer cell line HCC1428, with ORG2058, onapristone, their combination or vehicle. The concentrations used were 1 nM ORG2058 and 100 nM onapristone.

[2] = system: progestin-regulated genes in T-47D cells; assay: Expression profiling in T-47D cells; assay type: cell-based, human
Method: (§2) Total RNA was isolated using RNAqueous purification columns (Invitrogen). Total RNA (500 ng) was amplified and biotin labelled using Illumina TotalPrep reagents (Invitrogen). The amplified samples (750 ng) were hybridized to human whole genome HT-12 gene expression bead arrays using the recommended Illumina reagents and following the manufacturer's protocol. Raw data were analysed using Genome Studio software (Illumina). After background subtraction data and cubic spline normalization, differential expression p values were determined using the Illumina custom model of Genome Studio. Data were further analysed using Microsoft Excel and SPSS statistical software. Hierarchical clustering and self organizing map clustering were performed using GenePattern.
(§3) Onapristone ablated progestin regulation of all but 5 genes in T-47D and 6 genes in HCC1428.

[3] = system: progesterone receptor (PR) binding to genomic regions in HCC1428 breast cancer cells; assay: ChIP-PCR of PR binding regions in HCC1428 cells; assay type: cell-based, human
Method: Cells were cultured to 80% confluency in 15 cm tissue culture dishes, then treated for 45 minutes with 10 nM ORG2058 or vehicle. Chromatin was subsequently cross-linked by the addition of formaldehyde to the culture medium to a final concentration of 1% and incubation for 10 minutes at 37° C. Media were immediately removed and the cells were washed with cold phosphate buffered saline and harvested by scraping. Cells were collected by centrifugation and pellets were lysed 10 minutes at 4° C. in SDS buffer (1% SDS; 10 mM EDTA; 50 mM Tris-HCl, pH 8). The lysates were sonicated at 4° C. with a Branson 450 sonicator, using seven one minute bursts at 40% amplitude and 60% duty, each separated by a rest of at least one minute. Lysates were centrifuged at 13,000×g at 4° C. for 15 minutes to remove debris. […]
as §1, with “qPCR. […]” for “qPCR.”

[4] = system: progestin-regulated genes in HCC1428 cells; assay: Expression profiling in HCC1428 cells; assay type: cell-based, human; conditions: onapristone with 1 nM ORG2058
Method: as §2, §3

[5] = molecular target: T1, PR (Homo sapiens, UniProt P06401); conditions: relative to the synthetic analogue ORG2058; cited from earlier work
T1 sequence (P06401 1-933): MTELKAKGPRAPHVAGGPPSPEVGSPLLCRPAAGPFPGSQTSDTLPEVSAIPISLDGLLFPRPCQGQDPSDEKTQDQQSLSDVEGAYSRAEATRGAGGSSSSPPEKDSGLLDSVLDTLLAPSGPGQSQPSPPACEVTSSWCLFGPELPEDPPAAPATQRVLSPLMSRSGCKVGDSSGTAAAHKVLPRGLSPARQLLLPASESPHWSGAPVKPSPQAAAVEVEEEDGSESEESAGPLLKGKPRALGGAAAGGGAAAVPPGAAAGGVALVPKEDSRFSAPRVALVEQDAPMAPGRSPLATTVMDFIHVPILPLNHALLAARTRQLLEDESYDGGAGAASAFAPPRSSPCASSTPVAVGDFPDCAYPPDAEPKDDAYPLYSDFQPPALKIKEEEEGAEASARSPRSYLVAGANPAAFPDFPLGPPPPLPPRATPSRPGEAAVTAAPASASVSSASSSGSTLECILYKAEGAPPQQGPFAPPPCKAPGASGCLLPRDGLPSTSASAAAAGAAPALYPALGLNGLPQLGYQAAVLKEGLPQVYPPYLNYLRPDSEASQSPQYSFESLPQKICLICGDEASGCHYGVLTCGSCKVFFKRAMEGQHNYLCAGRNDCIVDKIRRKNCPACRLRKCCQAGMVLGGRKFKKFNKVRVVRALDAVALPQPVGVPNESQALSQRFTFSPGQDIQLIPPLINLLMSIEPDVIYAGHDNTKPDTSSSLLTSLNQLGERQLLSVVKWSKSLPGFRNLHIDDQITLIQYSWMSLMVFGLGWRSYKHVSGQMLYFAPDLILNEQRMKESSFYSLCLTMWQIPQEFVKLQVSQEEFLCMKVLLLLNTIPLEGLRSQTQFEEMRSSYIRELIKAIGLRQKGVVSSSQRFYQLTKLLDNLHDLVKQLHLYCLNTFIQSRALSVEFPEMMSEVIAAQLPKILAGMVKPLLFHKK

[6] = 1 nM ORG2058, in one or both cell lines (T-47D, HCC1428)

SMILES: CC[C@@H]1C[C@H]2[C@@H]3CCC4=CC(=O)CC[C@@H]4[C@H]3CC[C@]2(C)[C@H]1C(=O)CO [ORG2058, (8R,9S,10R,13S,14S,16R,17S)-16-ethyl-17-(2-hydroxyacetyl)-13-methyl-2,6,7,8,9,10,11,12,14,15,16,17-dodecahydro-1H-cyclopenta[a]phenanthren-3-one]
- ORG effects at the concentration used (preliminary experiments) ([1]; 1 nM ORG2058, cell line of preliminary experiments not stated): maximal
- PR binding regions with binding by ORG2058-liganded PR confirmed ([1]; T-47D, 1 nM ORG2058, ten regions tested): 9 of the 10
- Differentially expressed probes [2, 6]: 309 probes
- Genes regulated [2, 6]: 267 genes
- PR binding regions with binding by ORG2058-liganded PR confirmed ([3]; 1 nM ORG2058, ten regions tested): 9 of the 10

SMILES: CN(C)c1ccc([C@H]2C[C@]3(C)[C@@H](CC[C@]3(O)CCCO)[C@@H]3CCC4=CC(=O)CCC4=C32)cc1 [onapristone, (8S,11R,13R,14S,17S)-11-[4-(dimethylamino)phenyl]-17-hydroxy-17-(3-hydroxypropyl)-13-methyl-1,2,6,7,8,11,12,14,15,16-decahydrocyclopenta[a]phenanthren-3-one]
- PR binding in the presence of onapristone alone ([1]; 100 nM onapristone alone, mainly in T-47D cells): PR binding to some targets
- Effect of onapristone on ORG effects (preliminary experiments) ([1]; 100 nM onapristone with 1 nM ORG2058, cell line of preliminary experiments not stated): ablated
- PR binding regions with attenuation of ORG2058-liganded PR binding by onapristone confirmed ([1]; T-47D, 100 nM onapristone + 1 nM ORG2058, ten regions tested): 9 of the 10 and attenuated
- Genes whose progestin regulation was not ablated by onapristone ([2]; T-47D, onapristone with 1 nM ORG2058): 5 genes
- PR binding regions with attenuation of ORG2058-liganded PR binding by onapristone confirmed ([3]; 100 nM onapristone + 1 nM ORG2058, ten regions tested): 9 of the 10 and attenuated
- Genes whose progestin regulation was not ablated by onapristone [4]: 6 genes

SMILES: CC(=O)[C@H]1CC[C@H]2[C@@H]3CCC4=CC(=O)CC[C@]4(C)[C@H]3CC[C@]12C [progesterone]
- Dissociation from PR compared with ORG2058 [5]: more rapidly
